The test system of the series is CCRIS mutagenicity, Ames/micronucleus/aberration tests. The series is described as follows: CCRIS mutagenicity studies.
Setting [1] is: Test System: AMES SALMONELLA TYPHIMURIUM, Strain/Indicator: TA98, Metabolic Activation: RAT, LIVER, S-9, AROCLOR 1254, Method: STANDARD PLATE.
[2] abbreviates: Test System: AMES SALMONELLA TYPHIMURIUM, Strain/Indicator: TA100, Metabolic Activation: RAT, LIVER, S-9, AROCLOR 1254, Method: STANDARD PLATE.

SMILES strings stand for the structures. Active and inactive are the calls of the source. No rule for the calls is given here.

Consider `CC(=O)Nc1ccc(CC(=O)O)cc1`, for which the mutagenic call (Test System: AMES SALMONELLA TYPHIMURIUM, Strain/Indicator: TA98, Metabolic Activation: NONE) is “inactive; negative”; the mutagenic call (Test System: AMES SALMONELLA TYPHIMURIUM, Strain/Indicator: TA98, Metabolic Activation: RAT, LIVER, S-9, AROCLOR 1254) was “inactive; negative”; the mutagenic call (Test System: AMES SALMONELLA TYPHIMURIUM, Strain/Indicator: TA100, Metabolic Activation: NONE) is “inactive; negative”; the mutagenic call (Test System: AMES SALMONELLA TYPHIMURIUM, Strain/Indicator: TA100, Metabolic Activation: RAT, LIVER, S-9, AROCLOR 1254) is “inactive; negative”; the mutagenic call (Test System: AMES SALMONELLA TYPHIMURIUM, Strain/Indicator: TA1535, Metabolic Activation: NONE) is “inactive; negative”; the mutagenic call (Test System: AMES SALMONELLA TYPHIMURIUM, Strain/Indicator: TA1535, Metabolic Activation: RAT, LIVER, S-9, AROCLOR 1254) is “inactive; negative”. Besides, the mutagenic call by setting is: (Test System: AMES SALMONELLA TYPHIMURIUM, Strain/Indicator: TA1537, Metabolic Activation: NONE) “inactive; negative”; (Test System: AMES SALMONELLA TYPHIMURIUM, Strain/Indicator: TA1537, Metabolic Activation: RAT, LIVER, S-9, AROCLOR 1254) “inactive; negative”; (Test System: AMES SALMONELLA TYPHIMURIUM, Strain/Indicator: TA1538, Metabolic Activation: NONE) “inactive; negative”; (Test System: AMES SALMONELLA TYPHIMURIUM, Strain/Indicator: TA1538, Metabolic Activation: RAT, LIVER, S-9, AROCLOR 1254) “inactive; negative”; (Test System: E. COLI, Strain/Indicator: WP2, Metabolic Activation: NONE) “inactive; negative”; (Test System: E. COLI, Strain/Indicator: WP2, Metabolic Activation: RAT, LIVER, S-9, AROCLOR 1254) “inactive; negative”. Also, the mutagenic call runs as follows: (Test System: E. COLI, Strain/Indicator: WP2 UVRA, Metabolic Activation: NONE) “inactive; negative”; (Test System: E. COLI, Strain/Indicator: WP2 UVRA, Metabolic Activation: RAT, LIVER, S-9, AROCLOR 1254) “inactive; negative”.

As for `Clc1ccc2cc3ccccc3cc2c1`, the mutagenic call was “inactive; negative” (Test System: AMES SALMONELLA TYPHIMURIUM, Strain/Indicator: TA98, Metabolic Activation: NONE, Method: STANDARD PLATE); “active; positive” under setting [1]; “inactive; negative” (Test System: AMES SALMONELLA TYPHIMURIUM, Strain/Indicator: TA100, Metabolic Activation: NONE, Method: STANDARD PLATE); “inactive; negative” under setting [2].

In the case of `CN(C)c1ccc2cc3ccc(N(C)C)cc3nc2c1`, the mutagenic call is “active; positive” under setting [1]; “active; positive” under setting [2]; “active; positive” (Test System: AMES SALMONELLA TYPHIMURIUM, Strain/Indicator: TA1537, Metabolic Activation: RAT, LIVER, S-9, AROCLOR 1254, Method: STANDARD PLATE); “active; positive” (Test System: CHINESE HAMSTER OVARY, Strain/Indicator: CHO-K1-BH4 (HGPRT)/6-THIOGUANINE, Metabolic Activation: S-9, Method: SUSPENSION/PLATE); “inactive; negative” (Test System: E. COLI, Strain/Indicator: WP2, Metabolic Activation: NONE, Method: PREINCUBATION); “active; positive” (Test System: MOUSE LYMPHOMA, Strain/Indicator: L5178Y (TK+/TK-), Metabolic Activation: S-9, Method: SUSPENSION/PLATE).
